Measured values taken from ChEMBL document CHEMBL1132082, “Nonsteroidal androgen receptor agonists based on 4-(trifluoromethyl)-2H-pyrano[3,2-g]quinolin-2-one” (Bioorg Med Chem Lett, 1999).

How the values were obtained:
[1] = target: T1, Mineralocorticoid receptor (Homo sapiens, UniProt P08235); test: In vitro antagonistic activity against human mineralocorticoid receptor (hMR); not active; format: functional
T1 sequence (P08235 whole entry): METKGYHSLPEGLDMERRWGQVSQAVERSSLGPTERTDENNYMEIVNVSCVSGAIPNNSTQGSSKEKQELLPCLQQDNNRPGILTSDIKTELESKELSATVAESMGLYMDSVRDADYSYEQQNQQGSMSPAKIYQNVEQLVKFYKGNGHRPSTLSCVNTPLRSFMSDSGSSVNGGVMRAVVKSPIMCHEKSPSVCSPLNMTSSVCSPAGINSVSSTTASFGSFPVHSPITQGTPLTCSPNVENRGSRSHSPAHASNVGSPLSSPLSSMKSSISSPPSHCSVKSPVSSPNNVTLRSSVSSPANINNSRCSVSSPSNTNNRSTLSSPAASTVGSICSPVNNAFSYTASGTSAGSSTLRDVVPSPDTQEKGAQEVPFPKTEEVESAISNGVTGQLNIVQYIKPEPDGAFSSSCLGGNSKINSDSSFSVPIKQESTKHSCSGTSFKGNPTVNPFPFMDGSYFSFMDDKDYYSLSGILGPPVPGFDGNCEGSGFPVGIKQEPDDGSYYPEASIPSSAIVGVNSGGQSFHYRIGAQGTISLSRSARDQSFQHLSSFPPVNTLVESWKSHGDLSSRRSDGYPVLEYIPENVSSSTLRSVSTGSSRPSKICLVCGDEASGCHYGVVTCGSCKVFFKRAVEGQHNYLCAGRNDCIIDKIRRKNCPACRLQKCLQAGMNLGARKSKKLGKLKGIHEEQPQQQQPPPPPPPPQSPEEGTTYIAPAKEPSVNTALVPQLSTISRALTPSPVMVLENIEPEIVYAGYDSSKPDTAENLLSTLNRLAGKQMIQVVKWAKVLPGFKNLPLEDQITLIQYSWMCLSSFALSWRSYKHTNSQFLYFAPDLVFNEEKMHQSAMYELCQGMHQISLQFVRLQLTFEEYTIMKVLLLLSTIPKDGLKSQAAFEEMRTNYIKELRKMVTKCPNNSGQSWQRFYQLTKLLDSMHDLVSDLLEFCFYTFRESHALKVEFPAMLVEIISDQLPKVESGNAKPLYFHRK

Glucocorticoid receptor = target: T2, Glucocorticoid receptor (Homo sapiens, UniProt P04150); test: In vitro antagonistic activity against human glucocorticoid receptor (hGR); not active; format: functional
T2 sequence (P04150 whole entry): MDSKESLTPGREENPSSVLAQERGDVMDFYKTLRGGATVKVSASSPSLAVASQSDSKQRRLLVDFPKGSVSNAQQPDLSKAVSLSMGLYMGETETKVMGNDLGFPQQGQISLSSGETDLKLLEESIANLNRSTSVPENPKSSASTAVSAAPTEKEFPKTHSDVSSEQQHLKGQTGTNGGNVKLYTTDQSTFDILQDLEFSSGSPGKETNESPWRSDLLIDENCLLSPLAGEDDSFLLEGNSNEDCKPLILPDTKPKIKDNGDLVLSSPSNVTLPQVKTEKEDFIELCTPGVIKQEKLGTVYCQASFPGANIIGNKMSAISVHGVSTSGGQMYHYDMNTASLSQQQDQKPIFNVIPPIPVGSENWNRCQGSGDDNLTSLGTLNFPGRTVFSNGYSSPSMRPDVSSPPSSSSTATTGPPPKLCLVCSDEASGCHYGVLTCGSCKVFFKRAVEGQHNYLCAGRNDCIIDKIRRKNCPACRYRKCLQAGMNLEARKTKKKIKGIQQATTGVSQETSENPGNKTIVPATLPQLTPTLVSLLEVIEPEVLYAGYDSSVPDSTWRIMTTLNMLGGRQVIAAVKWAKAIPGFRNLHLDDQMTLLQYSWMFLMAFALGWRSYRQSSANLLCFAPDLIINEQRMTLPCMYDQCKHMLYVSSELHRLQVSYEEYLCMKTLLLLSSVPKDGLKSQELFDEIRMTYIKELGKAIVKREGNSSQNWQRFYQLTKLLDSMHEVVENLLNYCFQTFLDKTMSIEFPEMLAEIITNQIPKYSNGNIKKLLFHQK

SMILES	IC50 [1] [µM]	IC50 (Glucocorticoid receptor) [µM]
CCC1Nc2cc3oc(=O)cc(C(F)(F)F)c3cc2CC1C (stereo not given)	> 10	> 10
O=c1cc(C(F)(F)F)c2cc3c(cc2o1)NCCC3C(F)(F)F (stereo not given)	> 10	> 10
CCC1CCNc2cc3oc(=O)cc(C(F)(F)F)c3cc21 (stereo not given)	> 10	> 10
CC1CCNc2cc3oc(=O)cc(C(F)(F)F)c3cc21 (stereo not given)	> 10	> 10
CCCC1CCNc2cc3oc(=O)cc(C(F)(F)F)c3cc21 (stereo not given)	> 10	> 10
